US10323036B2 (Nimbus Lakshmi, Inc., priority 2016, dated 2019)

How the values were obtained:
JAK2 JH1 kinase = JAK2 JH1 kinase (Homo sapiens (Human), UniProt O60674); test: JAK2 Radioactive Kinase Assay; type: biochemical; details: ATP at 10 μM
Experimental: (§1) Peptide substrate, [KKSRGDYMTMQIG (SEQ ID NO: 2)], (20 μM) is prepared in reaction buffer (20 mM Hepes pH 7.5, 10 mM MgCl2, 1 mM EGTA, 0.02% Brij35, 0.02 mg/mL BSA, […], 2 mM DTT, 1% DMSO. TYK2 (Invitrogen) kinase is added, followed by compounds in DMSO. 33PATP is added to initiate the reaction in ATP at 10 μM. Kinase reaction is incubated for 120 min at room temp and reactions are spotted onto P81 ion exchange paper (Whatman #3698-915), and then washed extensively in 0.75% phosphoric acid, prior to reading the radioactivity counts. For JAK2 (Invitrogen) kinase assay the peptide substrate poly[Glu:Tyr] (4:1), 0.2 mg/ml is used, in the reaction carried out the same as for TYK2.

[1] = target: human TYK2 (JH2domain-pseudokinase) (Homo sapiens (Human), UniProt P29597); test: TYK2 JH2 Domain Binding Assay (KINOMEscan); details: Table 5, Tyk2 JH2 Domain Binding Assay; read-out: JH2 Kd
TYK2 JH1 kinase = TYK2 JH1 kinase (Homo sapiens (Human), UniProt P29597); test: Tyk2 Radioactive Kinase Assay; type: biochemical; details: ATP at 10 μM
Experimental: as §1

GM-CSF induced pSTAT5 = test: GM-CSF Induced pSTAT5 in Human PBMC; type: cell-based; details: 5 ng/mL GM-CSF, read-out: IC50 of inhibition of pSTAT5 production
Experimental: Cells are prepared for analysis as in the above procedure and 15 μl of GM-CSF (final concentration 5 ng/mL) is added for 20 minutes prior to pSTAT5 and total STAT5 analysis using cell lysates prepared and analyzed by MSD reagents as per manufacturer protocol. The final DMSO concentration of compound in the assay is 0.1%.

human TYK2 (JH2domain-pseudokinase), sequence (P29597 556-888): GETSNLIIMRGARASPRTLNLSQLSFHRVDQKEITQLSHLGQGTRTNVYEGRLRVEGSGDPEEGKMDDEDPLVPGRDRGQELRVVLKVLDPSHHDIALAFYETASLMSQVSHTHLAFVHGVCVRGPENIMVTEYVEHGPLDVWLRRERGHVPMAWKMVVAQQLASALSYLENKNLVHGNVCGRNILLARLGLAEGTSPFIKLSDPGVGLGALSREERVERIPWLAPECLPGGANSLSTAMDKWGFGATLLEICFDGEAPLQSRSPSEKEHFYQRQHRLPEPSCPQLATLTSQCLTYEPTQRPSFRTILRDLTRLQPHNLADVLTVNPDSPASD
TYK2 JH1 kinase, sequence (P29597 833-1187): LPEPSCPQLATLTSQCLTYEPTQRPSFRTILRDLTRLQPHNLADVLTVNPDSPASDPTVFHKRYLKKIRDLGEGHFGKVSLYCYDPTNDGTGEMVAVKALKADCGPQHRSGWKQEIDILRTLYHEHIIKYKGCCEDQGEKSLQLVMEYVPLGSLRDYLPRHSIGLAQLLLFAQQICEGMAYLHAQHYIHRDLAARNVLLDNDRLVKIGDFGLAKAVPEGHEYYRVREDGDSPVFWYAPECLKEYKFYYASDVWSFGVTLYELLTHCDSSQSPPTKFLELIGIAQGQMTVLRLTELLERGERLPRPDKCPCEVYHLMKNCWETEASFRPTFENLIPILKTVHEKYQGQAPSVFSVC
JAK2 JH1 kinase, sequence (O60674 808-1132): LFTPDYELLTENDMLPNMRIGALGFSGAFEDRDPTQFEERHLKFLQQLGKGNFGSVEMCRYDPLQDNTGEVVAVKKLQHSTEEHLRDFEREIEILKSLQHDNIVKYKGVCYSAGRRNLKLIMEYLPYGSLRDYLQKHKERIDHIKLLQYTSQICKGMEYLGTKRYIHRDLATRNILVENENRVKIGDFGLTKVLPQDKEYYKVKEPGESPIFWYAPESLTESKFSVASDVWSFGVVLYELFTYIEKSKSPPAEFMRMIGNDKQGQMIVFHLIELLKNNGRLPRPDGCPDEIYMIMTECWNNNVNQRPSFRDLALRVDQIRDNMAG

## COc1c(Nc2cc(NC(=O)C3CC3)ncc2-c2nnc(C(F)(F)F)o2)cccc1-c1ncn(C)n1 [VIII-3, N-(4-((2-methoxy-3-(1-methyl-1H-1,2,4-triazol-3-yl)phenyl)amino)-5-(5-(trifluoromethyl)-1,3,4-oxadiazol-2-yl)pyridin-2-yl)cyclopropanecarboxamide]
JAK2 JH1 kinase
  inhibitory activity against JAK2 JH1 kinase function: no detectable inhibitory activity
[1]
  Kd: > 100 nM
TYK2 JH1 kinase
  inhibitory activity against TYK2 JH1 kinase function: no detectable inhibitory activity

## COc1c(Nc2cc(NC(=O)C3CC3)ncc2-c2ncc(Cl)s2)cccc1-c1nnn(C)n1 [VIII-1, N-(5-(5-chlorothiazol-2-yl)-4-((2-methoxy-3-(2-methyl-2H-tetrazol-5-yl)phenyl)amino)pyridin-2-yl)cyclopropanecarboxamide]
GM-CSF induced pSTAT5
  IC50: > 50000 nM
[1]
  Kd: 1 to 10 nM
